In patent US20220386606A1, “SPECIFICALLY SUBSTITUTED 3-PHENYL-5-SPIROCYCLOPENTYL-3-PYRROLIN-2-ONES AND THEIR USE AS HERBICIDES” (Bayer Aktiengesellschaft, priority 2019, published 2022):

Tests used:
ALOMY [1] = test: Pre-emergence herbicidal action against ALOMY; format: in vivo, Alopecurus myosuroides; settings: 320 g/ha, scored visually after 3 weeks vs untreated controls
In short: (§1)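 Sandy loam, wood-fiber pots, seeds covered with soil. Spray onto soil surface: aqueous WP/EC, 600 to 800 L/ha, 0.2% wetting agent. Greenhouse 3 weeks; visual % score vs untreated controls.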

AVEFA [2] = test: Pre-emergence herbicidal action against AVEFA; format: in vivo, Avena fatua; settings: 320 g/ha, scored visually after 3 weeks vs untreated controls
In short: as §1

DIGSA [3] = test: Pre-emergence herbicidal action against DIGSA; format: in vivo, Digitaria sanguinalis; settings: 320 g/ha, scored visually after 3 weeks vs untreated controls
In short: as §1

ECHCG [4] = test: Pre-emergence herbicidal action against ECHCG; format: in vivo, Echinochloa crus-galli; settings: 320 g/ha, scored visually after 3 weeks vs untreated controls
In short: as §1

LOLRI [5] = test: Pre-emergence herbicidal action against LOLRI (Table 8, titled post-emergence at 320 g/ha); format: in vivo, Lolium rigidum; settings: table stands in the pre-emergence section
In short: as §1

SETVI [6] = test: Pre-emergence herbicidal action against SETVI; format: in vivo, Setaria viridis; settings: 320 g/ha, scored visually after 3 weeks vs untreated controls
In short: as §1

ABUTH = test: Pre-emergence herbicidal action against ABUTH; format: in vivo, Abutylon threophrasti; settings: 320 g/ha
In short: as §1

AMARE [7] = test: Pre-emergence herbicidal action against AMARE; format: in vivo, Amaranthus retroflexus; settings: 320 g/ha
In short: as §1

MATIN = test: Pre-emergence herbicidal action against MATIN; format: in vivo; settings: 320 g/ha
In short: as §1

POLCO = test: Pre-emergence herbicidal action against POLCO; format: in vivo, Polygonum convolvulus; settings: 320 g/ha
In short: as §1

VIOTR = test: Pre-emergence herbicidal action against VIOTR; format: in vivo, Viola tricolor; settings: 320 g/ha
In short: as §1

VERPE [8] = test: Pre-emergence herbicidal action against VERPE; format: in vivo, Veronica persica; settings: 320 g/ha
In short: as §1

ALOMY [9] = test: Post-emergence herbicidal action against ALOMY; format: in vivo, Alopecurus myosuroides; settings: 80 g/ha, visual assessment after about 3 weeks
In short: (§2)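 Weeds were grown in sandy loam in a greenhouse and treated at the one-leaf stage, 2 to 3 weeks after sowing. WP or EC formulations were sprayed onto green parts at 600 to 800 l/ha water with 0.2% wetting agent. Visual % action versus untreated controls was scored after about 3 weeks.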

AVEFA [10] = test: Post-emergence herbicidal action against AVEFA; format: in vivo, Avena fatua; settings: 80 g/ha, visual assessment after about 3 weeks
In short: as §2

DIGSA [11] = test: Post-emergence herbicidal action against DIGSA; format: in vivo, Digitaria sanguinalis; settings: 80 g/ha, visual assessment about 3 weeks after treatment vs untreated controls
In short: as §2

ECHCG [12] = test: Post-emergence herbicidal action against ECHCG; format: in vivo, Echinochloa crus-galli; settings: 80 g/ha, visual assessment about 3 weeks after treatment vs untreated controls
In short: as §2

LOLRI [13] = test: Post-emergence herbicidal action against LOLRI; format: in vivo, Lolium rigidum; settings: 80 g/ha, visual assessment about 3 weeks after treatment vs untreated controls
In short: as §2

SETVI [14] = test: Post-emergence herbicidal action against SETVI; format: in vivo, Setaria viridis; settings: 80 g/ha, visual assessment about 3 weeks after treatment vs untreated controls
In short: as §2

VERPE [15] = test: Post-emergence herbicidal action against VERPE; format: in vivo, Veronica persica; settings: 80 g/ha, visual assessment about 3 weeks after treatment vs untreated controls
Description: (§3) Seeds of monocotyledonous and dicotyledonous weed and crop plants are laid out in sandy loam soil in wood-fiber pots, covered with soil and cultivated in a greenhouse under good growth conditions. 2 to 3 weeks after sowing, the test plants are treated at the one-leaf stage. The compounds of the invention, formulated in the form of wettable powders (WP) or as emulsion concentrates (EC), are then sprayed onto the green parts of the plants as aqueous suspension or emulsion at a water application rate equating to 600 to 800 l/ha with addition of 0.2% wetting agent. After the test plants have been left to stand in the greenhouse under optimal growth conditions for about 3 weeks, the action of the preparations is assessed visually in comparison to untreated controls (herbicidal action in percent (%): 100% activity=the plants have died, 0% activity=like control plants).

AMARE [16] = test: Post-emergence herbicidal action against AMARE; format: in vivo, Amaranthus retroflexus; settings: 80 g/ha, visual assessment about 3 weeks after treatment vs untreated controls
Description: as §3

| Structure (SMILES) | Pre-emergence action against ALOMY in % (ALOMY [1]) [%] | Pre-emergence action against AVEFA in % (AVEFA [2]) [%] | Pre-emergence action against DIGSA in % (DIGSA [3]) [%] | Pre-emergence action against ECHCG in % (ECHCG [4]) [%] | Pre-emergence herbicidal action against LOLRI in % (LOLRI [5]) [%] | Pre-emergence action against SETVI in % (SETVI [6]) [%] | Pre-emergence action against ABUTH in % (ABUTH) [%] | Pre-emergence action against AMARE in % (AMARE [7]) [%] | Pre-emergence action against MATIN in % (MATIN) [%] | Pre-emergence action against POLCO in % (POLCO) [%] | Pre-emergence action against VIOTR in % (VIOTR) [%] | Pre-emergence action against VERPE in % (VERPE [8]) [%] | Post-emergence action against ALOMY in % (ALOMY [9]) [%] | Post-emergence action against AVEFA in % (AVEFA [10]) [%] | Post-emergence action against DIGSA in % (DIGSA [11]) [%] | Post-emergence action against ECHCG in % (ECHCG [12]) [%] | Post-emergence action against LOLRI in % (LOLRI [13]) [%] | Post-emergence action against SETVI in % (SETVI [14]) [%] | Post-emergence action against VERPE in % (VERPE [15]) [%] | Post-emergence action against AMARE in % (AMARE [16]) [%] |
| --- | --- | --- | --- | --- | --- | --- | --- | --- | --- | --- | --- | --- | --- | --- | --- | --- | --- | --- | --- | --- |
| CC#Cc1cc(C)c(C2=C(OC(=O)OCC)C3(CCC(COCC)C3)NC2=O)c(Cl)c1 (stereo not drawn) [Example P-28] | 100 | 100 | 100 | 100 | 100 | 100 | 90 | 100 | 90 | 80 | 100 | 100 | 100 | 90 | 100 | 100 | 100 | 100 | 80 | – |
| C=CCOCC1CCC2(C1)NC(=O)C(c1c(C)cc(C#CC)cc1Cl)=C2O (stereo not drawn) [Example I-44] | 100 | 90 | 100 | 90 | 100 | 100 | 80 | 100 | 80 | 100 | 100 | 80 | 100 | 80 | 100 | 100 | 80 | 100 | – | 80 |
| CC#Cc1cc(C)c(C2=C(O)C3(CCC(COCCC)C3)NC2=O)c(Cl)c1 (stereo not drawn) [Example I-71] | 100 | 80 | 100 | 100 | 100 | 100 | – | – | 90 | – | 100 | 90 | 90 | 80 | 90 | 90 | 90 | 100 | 80 | – |
